Consider 2 compounds from patent publication US5869527A, “6-(N-carboxymethylamino)caproate, salts thereof and methods of use therefor” (Alteon Inc., priority 1996, dated 1999).

The target in one experiment is monoclonal antibody BH4. The experiment in a line: Competition ELISA, inhibition of mAb BH4 binding. Also noted: species or system mouse. The procedure:
(§1) The ability of monoclonal antibodies, mAb 4G9, mAb BH4 and mAb 2G6, raised against KLH non-enzymatically glycated by prolonged incubation with glucose (KLH-AGE), to recognize the disodium 6-(N-carboxymethylamino)caproate was determined.
(§2) Direct ELISA and competition ELISA. For direct ELISA, 6- (N-carboxymethylamino)caproate was coated on microtiter plates, the unbound sites were blocked by incubation with Assay Buffer (25 mM borate, pH 8.0, 150 mM NaCl, 0.01% EDTA and 1% BSA). The plate was washed six times and increasing concentrations of mAb in Assay Buffer were added. […] The unbound antibodies were removed by extensive washing and the bound antibodies were detected by addition of p-nitrophenylphosphate in recording the optical density at 410 nm.
(§3) The competition ELISA was performed by pre-coating microtiter plates with disodium 6-(N-carboxymethylamino)caproate and blocking with Assay Buffer. […] The unbound materials were removed by extensive washing and the bound mAb was detected with alkaline phosphatase labeled anti-mouse antibodies similar to direct ELISA. […]
(§4) Competitive ELISA: Plates coated with BSA-AGE at 10 μg/ml. […] In the case of isothiocyanate the plates are soaked for 15 minutes with varying concentrations of isothiocyanate and the level of binding then measured.
In general terms: ELISA stands for enzyme-linked immunosorbent assay.

In the next experiment the target is monoclonal antibody 2G6. In words: Competition ELISA, inhibition of mAb 2G6 binding. Also noted: species or system mouse. On the procedure: as §1, §2, §3, §4
The target in a further experiment is monoclonal antibody 4G9. The experiment in a line: Competition ELISA, inhibition of mAb 4G9 binding. Also noted: species or system mouse. The procedure: as §1, §2, §3, §4
In experiment [1] the test system is antibodies to advanced glycosylation endproducts. In words: Recognition of compounds by monoclonal antibodies to advanced glycosylation endproducts (direct/competition ELISA). The following applies: qualitative. The format is binding. On the procedure:
as §1
Direct ELISA and competition ELISA. For direct ELISA, 6- (N-carboxymethylamino)caproate was coated on microtiter plates, the unbound sites were blocked by incubation with Assay Buffer (25 mM borate, pH 8.0, 150 mM NaCl, 0.01% EDTA and 1% BSA). The plate was washed six times and increasing concentrations of mAb in Assay Buffer were added. After this incubation, the plate was again washed and incubated with alkaline-phosphatase labeled goat anti-mouse antibodies (Cappel, Durham, N.C.) diluted 1:1000 in Assay Buffer. The unbound antibodies were removed by extensive washing and the bound antibodies were detected by addition of p-nitrophenylphosphate in recording the optical density at 410 nm.
as §3

A further experiment concerns Hb-AGE. The following applies: diabetic patients treated for 28 days; WO 93/13421; cited from earlier work.
For experiment [2], the system named is advanced glycosylation endproducts. The following applies: U.S. Pat. No. 4,758,583; cited from earlier work.
Setting [3] is: Competitive ELISA, plates coated with BSA-AGE at 10 μg/ml.

Take `O=C(O)CCCCCNCC(=O)O` [ALT-927, disodium 6-(N-carboxymethylamino)caproate]: the “Concentration of Antigen for 50% Inhibition of mAb BH4” value at monoclonal antibody BH4 (setting [3]) is 5.7 pmol/well. In addition, the “recognition by monoclonal antibody BH4” value in the experiment with monoclonal antibody BH4 (qualitative, ELISA) is on record as “displayed recognition”. Further, at monoclonal antibody 2G6 (setting [3]), the “Concentration of Antigen for 50% Inhibition of mAb 2G6” value amounted to 21 pmol/well. The “recognition by monoclonal antibody 2G6” value in the experiment with monoclonal antibody 2G6 (qualitative, ELISA) is reported as “displayed recognition”. Besides, the “Concentration of Antigen for 50% Inhibition of mAb 4G9” value at monoclonal antibody 4G9 (setting [3]) was found to be 11 pmol/well. Further, the “recognition by monoclonal antibody 4G9” value in the experiment with monoclonal antibody 4G9 (qualitative, ELISA) is recorded as “displayed recognition”. Besides, the “recognition by antibodies which recognize advanced glycosylation endproducts” value in experiment [1] is “have been shown to recognize”.

`N=C(N)NN` [aminoguanidine]: in the experiment with Hb-AGE, the “levels of Hb-AGE at the end of the treatment period” value was “significantly decreased levels of Hb-AGE”. Besides, the “inhibition of formation of advanced glycosylation endproducts” value in experiment [2] was “identified as an inhibitor”.
